From article PMC12345137 (mBio, 2025)

Assays:
S. aureus agr-IV = S. aureus agr-IV (Staphylococcus aureus, UniProt Q309Z2); assay: cell-based; assay type: cell-based; settings: fluorescent reporter strain; peptides tested at 1000, 50, 2.5, 0.125 nM or in dose-response
Procedure, shortened: (§1)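 Fluorescence of the agr-driven P3 reporter, read after 22–24 h of growth with peptide at 37°C, was corrected for medium background and divided by OD600. Activity is given relative to wells without peptide, and IC50 values were fitted by non-linear regression with variable slope.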

S. epidermidis agr-III = S. epidermidis agr-III (Staphylococcus epidermidis, UniProt Q8VSX2); assay: cell-based; assay type: cell-based; settings: fluorescent reporter strain; peptides tested at 1000, 50, 2.5, 0.125 nM or in dose-response
Sequence of S. epidermidis agr-III (Q8VSX2 entry or part of it): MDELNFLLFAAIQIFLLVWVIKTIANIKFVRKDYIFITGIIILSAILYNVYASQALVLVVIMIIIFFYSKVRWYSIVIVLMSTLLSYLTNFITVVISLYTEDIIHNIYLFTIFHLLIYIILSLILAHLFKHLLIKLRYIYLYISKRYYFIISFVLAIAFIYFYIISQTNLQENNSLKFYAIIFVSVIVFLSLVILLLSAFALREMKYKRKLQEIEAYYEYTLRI
Procedure, shortened: as §1

S. epidermidis agr-II = S. epidermidis agr-II (Staphylococcus epidermidis, UniProt Q8VSX5); assay: cell-based; assay type: cell-based; settings: fluorescent reporter strain; peptides tested at 1000, 50, 2.5, 0.125 nM or in dose-response
Sequence of S. epidermidis agr-II (Q8VSX5 entry or part of it): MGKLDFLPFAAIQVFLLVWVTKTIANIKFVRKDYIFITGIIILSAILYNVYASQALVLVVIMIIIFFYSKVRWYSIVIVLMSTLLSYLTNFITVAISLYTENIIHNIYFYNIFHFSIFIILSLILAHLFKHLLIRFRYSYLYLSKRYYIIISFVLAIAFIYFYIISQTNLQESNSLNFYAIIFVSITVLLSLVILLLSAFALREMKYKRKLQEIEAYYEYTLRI
Procedure, shortened: as §1

S. aureus agr-I = S. aureus agr-I (Staphylococcus aureus, UniProt O07911); assay: Fluorescence reporter assay for agr interference, screening and IC50 (AH1677, P3-YFP); assay type: cell-based; settings: fluorescent reporter strain; peptides tested at 1000, 50, 2.5, 0.125 nM or in dose-response
Sequence of S. aureus agr-I (O07911 entry or part of it): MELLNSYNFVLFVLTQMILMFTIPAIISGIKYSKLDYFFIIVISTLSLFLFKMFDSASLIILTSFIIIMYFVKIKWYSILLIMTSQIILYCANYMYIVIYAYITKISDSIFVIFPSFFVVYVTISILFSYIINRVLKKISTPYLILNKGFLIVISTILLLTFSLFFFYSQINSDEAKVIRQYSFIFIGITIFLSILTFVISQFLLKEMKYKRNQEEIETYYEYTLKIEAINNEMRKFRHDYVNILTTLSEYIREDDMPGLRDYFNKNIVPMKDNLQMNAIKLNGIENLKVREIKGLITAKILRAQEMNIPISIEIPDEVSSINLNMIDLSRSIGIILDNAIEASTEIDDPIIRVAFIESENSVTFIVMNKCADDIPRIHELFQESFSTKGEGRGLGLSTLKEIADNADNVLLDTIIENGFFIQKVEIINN
Experimental: (§2) Peptides were evaluated for the ability to interfere with agr-mediated quorum sensing in S. aureus (AH1677, AH430, AH1747, and AH1872 for agr-I–IV, respectively) ([40]) using reporter strains expressing yellow fluorescent protein (YFP) upon agr activation. Interference with agr-mediated quorum sensing in S. epidermidis (AH3408, AH3623, and AH3409 for agr-I–III, respectively) ([45]), and S. lugdunensis (AH4031 for agr-I) ([37]) was evaluated using reporter strains expressing superfolder green fluorescent protein (sGFP) upon agr activation. Overnight cultures of the reporter strains were grown in TSB medium containing chloramphenicol (CAM, 10 μg/mL for S. aureus) or erythromycin (ERM, 10 μg/mL of S. epidermidis and S. lugdunensis) and diluted 1:100 in fresh TSB medium containing the same antibiotic. Assays were performed in sterile black 96-well plates with a clear bottom. […] DMSO stock solutions of peptides (1 mM) were diluted in TSB media and added (15 μL) in technical triplicate to the 96-well plate, followed by diluted bacterial overnight cultures (135 μL). […] Wells containing 150 μL TSB medium were used to measure background fluorescence. The 96-well plates were incubated in a humidified incubator at 37°C shaking at 1,000 rpm for 22–24 h and fluorescence (for GFP: excitation 479 nm, emission 520 nm; for YFP: excitation 500 nm, emission 541 nm; automatic gain), and OD600 values were subsequently measured using a plate reader. Background fluorescence was subtracted from all wells and further normalized to the corresponding OD600 value of the respective wells. The average fluorescence of control wells was used as a relative measure for 100% activation of the agr-circuit, and bar graphs were generated using GraphPad Prism 10.4 software. All assays were performed in at least a biological duplicate.
(§3) Overnight cultures of the reporter strains were grown in TSB medium containing chloramphenicol (CAM, 10 μg/mL for S. aureus) or erythromycin (ERM, 10 μg/mL of S. epidermidis and S. lugdunensis) and diluted 1:100 in fresh TSB medium containing the same antibiotic. Assays were performed in sterile black 96-well plates with clear bottoms. Peptide solutions (15 μL) in 1:5 serial dilutions from DMSO stock solutions (1 mM) in TSB medium were added to the 96-well plate in technical duplicate followed by diluted bacterial overnight cultures (135 μL). […] Wells containing 150 μL TSB medium were used to measure background fluorescence. The 96-well plates were incubated in a humidified incubator at 37°C shaking at 1,000 rpm for 22–24 h and fluorescence (for GFP: excitation 479 nm, emission 520 nm; for YFP: excitation 500 nm, emission 541 nm; automatic gain), and OD600 values were subsequently measured using a plate reader. Background fluorescence was subtracted from all wells and further normalized to the corresponding OD600 value of the respective wells. The average fluorescence of control wells was used as a relative measure for 100% activation of the agr-circuit. Relative agr activity was plotted to obtain IC50 values by non-linear regression with variable slope using GraphPad Prism 10.4 software. All assays were performed in biological triplicate.

SA AgrC-III = SA AgrC-III (Staphylococcus aureus, UniProt O33590); settings: 100 nM cognate AIP; ± SEM; -b = no inhibition recorded at the highest AIP concentration tested; determined previously; ref (1); read-out: IC50, SA AgrC-III, b-lactamase assay; cited from earlier work
Sequence of SA AgrC-III (O33590 entry or part of it): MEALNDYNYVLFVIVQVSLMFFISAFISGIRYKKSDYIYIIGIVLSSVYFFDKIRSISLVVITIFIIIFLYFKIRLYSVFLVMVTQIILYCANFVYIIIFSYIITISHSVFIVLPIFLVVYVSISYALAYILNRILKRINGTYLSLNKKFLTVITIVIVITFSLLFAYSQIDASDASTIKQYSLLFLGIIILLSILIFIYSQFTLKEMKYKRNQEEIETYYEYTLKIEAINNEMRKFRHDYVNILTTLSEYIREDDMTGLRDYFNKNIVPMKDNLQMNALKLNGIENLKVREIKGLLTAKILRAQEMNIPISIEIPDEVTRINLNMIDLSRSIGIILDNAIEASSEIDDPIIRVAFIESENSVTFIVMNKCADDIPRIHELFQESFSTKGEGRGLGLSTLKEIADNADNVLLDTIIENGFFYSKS

SA AgrC-IV = SA AgrC-IV (Staphylococcus aureus, UniProt Q309Z2); settings: 100 nM cognate AIP; ± SEM; -b = no inhibition recorded at the highest AIP concentration tested; determined previously; ref (1); read-out: IC50, SA AgrC-IV, b-lactamase assay; cited from earlier work
Sequence of SA AgrC-IV (Q309Z2 entry or part of it): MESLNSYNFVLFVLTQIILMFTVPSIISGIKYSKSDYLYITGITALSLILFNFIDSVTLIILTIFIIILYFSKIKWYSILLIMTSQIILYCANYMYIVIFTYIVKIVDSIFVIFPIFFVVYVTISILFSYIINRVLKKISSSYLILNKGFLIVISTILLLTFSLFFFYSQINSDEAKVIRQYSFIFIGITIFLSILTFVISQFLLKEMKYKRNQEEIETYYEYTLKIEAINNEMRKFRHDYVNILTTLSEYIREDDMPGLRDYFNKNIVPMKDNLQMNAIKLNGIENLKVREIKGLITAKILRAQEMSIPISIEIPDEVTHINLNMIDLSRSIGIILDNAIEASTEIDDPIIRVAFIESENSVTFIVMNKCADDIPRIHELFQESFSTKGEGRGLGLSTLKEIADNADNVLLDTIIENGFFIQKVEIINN

SA AgrC-II = SA AgrC-II (Staphylococcus aureus, UniProt O33587); settings: 100 nM cognate AIP; ± SEM; -b = no inhibition recorded at the highest AIP concentration tested; determined previously; ref (1); read-out: IC50, SA AgrC-II, b-lactamase assay; cited from earlier work
Sequence of SA AgrC-II (O33587 entry or part of it): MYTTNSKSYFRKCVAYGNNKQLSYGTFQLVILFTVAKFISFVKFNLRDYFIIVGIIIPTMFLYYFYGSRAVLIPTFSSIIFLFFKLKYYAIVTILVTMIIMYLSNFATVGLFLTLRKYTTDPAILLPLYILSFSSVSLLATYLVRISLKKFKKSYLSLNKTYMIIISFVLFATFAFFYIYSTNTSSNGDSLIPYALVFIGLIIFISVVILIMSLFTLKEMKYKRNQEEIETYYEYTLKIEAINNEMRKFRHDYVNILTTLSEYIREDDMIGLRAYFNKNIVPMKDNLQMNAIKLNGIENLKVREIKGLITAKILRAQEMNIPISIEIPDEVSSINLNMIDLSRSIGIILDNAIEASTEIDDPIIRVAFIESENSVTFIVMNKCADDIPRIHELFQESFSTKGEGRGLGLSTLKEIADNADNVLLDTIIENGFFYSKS

S. aureus agr-II = S. aureus agr-II (Staphylococcus aureus, UniProt O33587); assay: cell-based; settings: fluorescent reporter strain; peptides tested at 1000, 50, 2.5, 0.125 nM or in dose-response
Sequence of S. aureus agr-II (O33587 entry or part of it): as above
Procedure, shortened: as §1

S. lugdunensis agr-I = S. lugdunensis agr-I (Staphylococcus lugdunensis, UniProt Q8VSW5); assay: cell-based; settings: fluorescent reporter strain; peptides tested at 1000, 50, 2.5, 0.125 nM or in dose-response
Sequence of S. lugdunensis agr-I (Q8VSW5 entry or part of it): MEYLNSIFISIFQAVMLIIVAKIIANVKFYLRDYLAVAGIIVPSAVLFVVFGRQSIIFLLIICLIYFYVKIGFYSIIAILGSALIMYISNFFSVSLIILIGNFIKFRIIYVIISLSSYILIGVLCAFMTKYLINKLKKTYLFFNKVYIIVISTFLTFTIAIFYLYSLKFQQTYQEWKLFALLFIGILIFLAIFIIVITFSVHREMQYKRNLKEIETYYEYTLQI
Procedure, shortened: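 37°C, 1,000 rpm, 22–24 h in TSB + CAM or ERM (10 μg/mL); 1:5 serial peptide dilutions from 1 mM DMSO stocks; fluorescence (GFP ex 479/em 520, YFP ex 500/em 541) minus blank, ÷OD600, % of untreated control; IC50 by variable-slope fit.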

S. aureus agr-III = S. aureus agr-III (Staphylococcus aureus, UniProt O33590); assay: cell-based; settings: fluorescent reporter strain; peptides tested at 1000, 50, 2.5, 0.125 nM or in dose-response
Sequence of S. aureus agr-III (O33590 entry or part of it): as the sequence (O33590 entry or part of it) above
Procedure, shortened: as §1

S. epidermidis agr-I = S. epidermidis agr-I (Staphylococcus epidermidis, UniProt Q5HMY3); assay: cell-based; assay type: cell-based; settings: fluorescent reporter strain; peptides tested at 1000, 50, 2.5, 0.125 nM or in dose-response
Sequence of S. epidermidis agr-I (Q5HMY3 entry or part of it): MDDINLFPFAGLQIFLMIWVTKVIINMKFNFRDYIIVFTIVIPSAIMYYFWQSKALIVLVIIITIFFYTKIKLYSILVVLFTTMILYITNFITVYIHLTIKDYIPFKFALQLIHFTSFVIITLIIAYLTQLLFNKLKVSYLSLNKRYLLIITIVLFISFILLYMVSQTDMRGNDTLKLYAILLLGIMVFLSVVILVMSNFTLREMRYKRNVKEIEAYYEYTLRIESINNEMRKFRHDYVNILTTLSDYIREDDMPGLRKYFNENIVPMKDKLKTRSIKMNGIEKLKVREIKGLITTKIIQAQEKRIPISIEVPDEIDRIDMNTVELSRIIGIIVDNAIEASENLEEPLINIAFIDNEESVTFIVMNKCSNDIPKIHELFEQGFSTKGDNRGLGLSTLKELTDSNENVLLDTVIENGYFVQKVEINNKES
Experimental: as §2, §3

Sequence of S. aureus agr-IV (Q309Z2 entry or part of it): as the sequence (Q309Z2 entry or part of it) above

Substance	QS interaction in words (inhibition / activation), S. aureus agr-IV (S. aureus agr-IV)	QS interaction in words (inhibition / activation), S. epidermidis agr-III (S. epidermidis agr-III)	QS interaction in words (inhibition / activation), S. epidermidis agr-II (S. epidermidis agr-II)	QS interaction in words (inhibition / activation), S. aureus agr-I (S. aureus agr-I)	IC50 (SA AgrC-III) [nM]	IC50 (SA AgrC-IV) [nM]	IC50 (SA AgrC-II) [nM]	QS interaction in words (inhibition / activation), S. aureus agr-II (S. aureus agr-II)	QS interaction in words (inhibition / activation), S. lugdunensis agr-I (S. lugdunensis agr-I)	QS interaction in words (inhibition / activation), S. aureus agr-III (S. aureus agr-III)	QS interaction in words (inhibition / activation), S. epidermidis agr-I (S. epidermidis agr-I)
S. chromogenes AIP-I [compound 27]	potently inhibited	potently inhibited	potently inhibited	potently inhibited	60 ± 13	350 ± 85	200 ± 13	potently inhibited	only weakly inhibited	potently inhibited	potently inhibited
S. hyicus AIP-I [compound 26]	potently inhibited	potently inhibited	potently inhibited	potently inhibited	4 ± 0.8	180 ± 33	350 ± 90	potently inhibited	only weakly inhibited	potently inhibited	potently inhibited
